Patent publication US5436254A, “Carbostyril derivatives” (Otsuka Pharmaceutical Company, Ltd., priority 1989, dated 1995)
Read-outs that look alike come from different tables or passages of the source.

Biological target: V1 receptor (Rattus norvegicus, UniProt P30560)
Assay: biochemical
Format: binding
[1] = [H]3-Arg-vasopressin 2×10^-10 M, rat liver plasma membrane, 37° C., 10 minutes, pH 8.0, read-out: IC50

V1 receptor, sequence (P30560 whole entry): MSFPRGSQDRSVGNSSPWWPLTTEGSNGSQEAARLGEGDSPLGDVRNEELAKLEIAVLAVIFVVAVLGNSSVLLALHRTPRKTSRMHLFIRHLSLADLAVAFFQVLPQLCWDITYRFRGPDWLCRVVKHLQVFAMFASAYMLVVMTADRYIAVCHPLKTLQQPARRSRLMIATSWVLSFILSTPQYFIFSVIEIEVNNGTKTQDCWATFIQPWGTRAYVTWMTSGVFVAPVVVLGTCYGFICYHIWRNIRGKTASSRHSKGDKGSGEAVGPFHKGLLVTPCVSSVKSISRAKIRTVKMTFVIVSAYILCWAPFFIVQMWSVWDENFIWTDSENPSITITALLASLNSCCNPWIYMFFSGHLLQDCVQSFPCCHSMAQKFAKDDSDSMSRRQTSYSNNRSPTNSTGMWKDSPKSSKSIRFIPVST

In the case of “1-[1-(4-Propargylbenzoyl)-4-piperidinyl]-3,4-dihydrocarbostyril [Example 96]”, the IC50 [1] is reported as 0.6 µM.
In the case of “1-{1-[4-(6-(1-Methyl-5-oxo-3-morpholino)hexyloxy)benzoyl]-4-piperidinyl}-3,4-dihydrocarbostyril [Example 215]”, the IC50 [1] is reported as 0.17 µM.
“1-{1-[4-[4-(Benzimidazol-1-yl)thiobutoxy]benzoyl]-4-piperidinyl}-3,4-dihydrocarbostyril [Example 164]” showed an IC50 [1] of 0.78 µM.
`NC(=O)CCCCOc1ccc(C(=O)N2CCC(N3C(=O)CCc4ccccc43)CC2)cc1` [Example 3, 1-{1-[4-(4-Carbamoylbutoxy)benzoyl]-4-piperidinyl}-3,4-dihydrocarbostyril] was tested, and the IC50 was 0.33 µM.
`NC(=O)CNC(=O)CCCCOc1ccc(C(=O)N2CCC(N3C(=O)CCc4ccccc43)CC2)cc1` [Example 4, 1-{1-[4-(4-Carbamoylmethylaminocarbonylbutoxy)benzoyl]-4-piperidinyl}-3,4-dihydrocarbostyril] showed an IC50 of 0.24 µM.
For `N#CCCCOc1ccc(C(=O)N2CCC(N3C(=O)CCc4ccccc43)CC2)cc1` [Example 5, 1-{1-[4-(3-Cyanopropoxy)benzoyl]-4-piperidinyl}-3,4-dihydrocarbostyril], the IC50 was 0.49 µM.
In the case of `N=C(N)CCCOc1ccc(C(=O)N2CCC(N3C(=O)CCc4ccccc43)CC2)cc1` [Example 6, 1-{1-[4-(3-Amidinopropoxy)benzoyl]-4-piperidinyl}-3,4-dihydrocarbostyril], the IC50 is reported as 0.47 µM.
Compound `NC(=O)CCCOc1ccc(C(=O)N2CCC(N3C(=O)CCc4ccccc43)CC2)cc1` [Example 7, 1-{1-[4-(3-Carbamoylpropoxy)benzoyl]-4-piperidinyl}-3,4-dihydrocarbostyril] has an IC50 of 0.31 µM.
`CCOC(=O)CNC(=O)CCCOc1ccc(C(=O)N2CCC(N3C(=O)CCc4ccccc43)CC2)cc1` [Example 8, 1-{1-[4-(3-Ethoxycarbonylmethylaminocarbonylpropoxy)benzoyl]-4-piperidinyl}-3,4-dihydrocarbostyril] gave an IC50 of 0.3 µM.
`NC(=O)CNC(=O)CCCOc1ccc(C(=O)N2CCC(N3C(=O)CCc4ccccc43)CC2)cc1` [Example 9, 1-{1-[4-(3-Carbamoylmethylaminocarbonylpropoxy)benzoyl]-4-piperidinyl}-3,4-dihydrocarbostyril] was tested, and the IC50 was 0.35 µM.
In the case of `COC(=O)[C@H](CO)NC(=O)CCCOc1ccc(C(=O)N2CCC(N3C(=O)CCc4ccccc43)CC2)cc1` [Example 10, Methyl N-[4-{4-[4-(1,2,3,4-tetrahydro-2-oxo-1-quinolyl)-1-piperidinylcarbonyl]phenoxy}]butanoyl-L-serinate], the IC50 is reported as 0.32 µM.
`COC(=O)[C@H](C)NC(=O)CCCOc1ccc(C(=O)N2CCC(N3C(=O)CCc4ccccc43)CC2)cc1` [Example 11, Methyl N-[4-{4-[4-(1,2,3,4-tetrahydro-2-oxo-1-quinolyl)-1-piperidinylcarbonyl]phenoxy}]butanoyl-L-alanate] was tested, and the IC50 was 0.3 µM.
`NC(=O)CCCCCOc1ccc(C(=O)N2CCC(N3C(=O)CCc4ccccc43)CC2)cc1` [Example 12, 1-{1-[4-(5-Carbamoylpentyloxy)benzoyl]-4-piperidinyl}-3,4-dihydrocarbostyril] gave an IC50 of 0.23 µM.
With `CCOC(=O)CNC(=O)CCCCCOc1ccc(C(=O)N2CCC(N3C(=O)CCc4ccccc43)CC2)cc1` [Example 13, 1-{1-[4-(5-Ethoxycarbonylmethylaminocarbonylpentyloxy)benzoyl]-4-piperidinyl}-3,4-dihydrocarbostyril] the IC50 was 0.28 µM.
`NC(=O)CNC(=O)CCCCCOc1ccc(C(=O)N2CCC(N3C(=O)CCc4ccccc43)CC2)cc1` [Example 14, 1-{1-[4-(5-Carbamoylmethylaminocarbonylpentyloxy)benzoyl]-4-piperidinyl}-3,4-dihydrocarbostyril] gave an IC50 of 0.16 µM.
For `NC(=O)CCCCCCCOc1ccc(C(=O)N2CCC(N3C(=O)CCc4ccccc43)CC2)cc1` [Example 15, 1-{1-[4-(7-Carbamoylheptyloxy)benzoyl]-4-piperidinyl}-3,4-dihydrocarbostyril], the IC50 was 0.26 µM.
`NC(=O)CNC(=O)CCCCCCCOc1ccc(C(=O)N2CCC(N3C(=O)CCc4ccccc43)CC2)cc1` [Example 16, 1-(1-[4-(7-Carbamoylmethylaminocarbonylheptyloxy)benzoyl]-4-piperidinyl}-3,4-dihydrocarbostyril] was tested, and the IC50 was 0.15 µM.
Compound `CN(C)CCCOc1ccc(C(=O)N2CCC(N3C(=O)CCc4ccccc43)CC2)cc1` [Example 17, 1-{1-[4-(3-Dimethylaminopropoxy)benzoyl]-4-piperidinyl}-3,4-dihydrocarbostyril] has an IC50 of 0.43 µM.
With `O=C(c1ccc(OCCCNCc2ccccc2)cc1)N1CCC(N2C(=O)CCc3ccccc32)CC1` [Example 18, 1-{1-[4-(3-Benzylaminopropoxy)benzoyl]-4-piperidinyl}-3,4-dihydrocarbostyril] the IC50 was 0.27 µM.
`CS(=O)(=O)NCCCOc1ccc(C(=O)N2CCC(N3C(=O)CCc4ccccc43)CC2)cc1` [Example 22, 1-{1-[4-(3-Methylsulfonylaminopropoxy)benzoyl]-4-piperidinyl}-3,4-dihydrocarbostyril] was tested, and the IC50 was 0.34 µM.
`CNC(=O)NCCCOc1ccc(C(=O)N2CCC(N3C(=O)CCc4ccccc43)CC2)cc1` [Example 23, 1-[1-{4-[3-(3-Methylureido)propoxy]benzoyl}-4-piperidinyl]-3,4-dihydrocarbostyril] showed an IC50 of 0.24 µM.
`CC(=O)NCC(=O)NCCCCOc1ccc(C(=O)N2CCC(N3C(=O)CCc4ccccc43)CC2)cc1` [Example 25] gave an IC50 of 0.24 µM.
Work on `COC(=O)NCCCCOc1ccc(C(=O)N2CCC(N3C(=O)CCc4ccccc43)CC2)cc1` [Example 27, 1-{1-[4-(4-Methoxycarbonylaminobutoxy)benzoyl]-4-piperidinyl}-3,4-dihydrocarbostyril] yielded an IC50 of 0.27 µM.
`CS(=O)(=O)NCCCCOc1ccc(C(=O)N2CCC(N3C(=O)CCc4ccccc43)CC2)cc1` [Example 28, 1-{1-[4-(4-Methylsulfonylaminobutoxy)benzoyl]-4-piperidinyl}-3,4-dihydrocarbostyril] gave an IC50 of 0.16 µM.
In the case of `CNCC(O)CCCOc1ccc(C(=O)N2CCC(N3C(=O)CCc4ccccc43)CC2)cc1` (stereo not drawn) [Example 30, 1-{1-[4-(5-Methylamino-4-hydroxypentyloxy)benzoyl]-4-piperidinyl}-3,4-dihydrocarbostyril], the IC50 is reported as 0.33 µM.
Work on `O=C(c1ccc(OCCCO)cc1)N1CCC(N2C(=O)CCc3ccccc32)CC1` [Example 32, 1-{1-[4-(3-Hydroxypropoxy)benzoyl]-4-piperidinyl}-3,4-dihydrocarbostyril] yielded an IC50 of 0.46 µM.
In the case of `CC(=O)OCCCOc1ccc(C(=O)N2CCC(N3C(=O)CCc4ccccc43)CC2)cc1` [Example 33, 1-{1-[4-(3-Acetoxypropoxy)benzoyl]-4-piperidinyl}-3,4-dihydrocarbostyril], the IC50 is reported as 0.45 µM.
Compound `NC(=O)OCCCOc1ccc(C(=O)N2CCC(N3C(=O)CCc4ccccc43)CC2)cc1` [Example 35, 1-{1-[4-(3-Carbamoyloxypropoxy)benzoyl]-4-piperidinyl}-3,4-dihydrocarbostyril] has an IC50 of 0.15 µM.
In the case of `O=C(c1ccc(OCCCCO)cc1)N1CCC(N2C(=O)CCc3ccccc32)CC1` [Example 36, 1-{1-[4-(4-Hydroxybutoxy)benzoyl]-4-piperidinyl}-3,4-dihydrocarbostyril], the IC50 is reported as 0.37 µM.
With `CC(=O)OCCCCOc1ccc(C(=O)N2CCC(N3C(=O)CCc4ccccc43)CC2)cc1` [Example 37, 1-{1-[4-(4-Acetoxybutoxy)benzoyl]-4-piperidinyl}-3,4-dihydrocarbostyril] the IC50 was 0.36 µM.
Compound `NC(=O)OCCCCOc1ccc(C(=O)N2CCC(N3C(=O)CCc4ccccc43)CC2)cc1` [Example 38, 1-{1-[4-(4-Carbamoyloxybutoxy)benzoyl]-4-piperidinyl}-3,4-dihydrocarbostyril] has an IC50 of 0.27 µM.
`CC(=O)OCCCCCOc1ccc(C(=O)N2CCC(N3C(=O)CCc4ccccc43)CC2)cc1` [Example 39, 1-{1-[4-(5-Acetoxypentyloxy)benzoyl]-4-piperidinyl}-3,4-dihydrocarbostyril] was tested, and the IC50 was 0.15 µM.
Compound `C=CCOc1ccc(C(=O)N2CCC(N3C(=O)CCc4ccccc43)CC2)cc1` [Example 44, 1-[1-(4-Allyloxybenzoyl)-4-piperidinyl]-3,4-dihydrocarbostyril] has an IC50 of 0.3 µM.
Work on `O=C(c1ccc(Oc2ccccc2)cc1)N1CCC(N2C(=O)CCc3ccccc32)CC1` [Example 45, 1-[1-(4-Phenyloxybenzoyl)-4-piperidinyl]-3,4-dihydrocarbostyril] yielded an IC50 of 0.2 µM.
`CNc1ccc(C(=O)N2CCC(N3C(=O)CCc4ccccc43)CC2)c(OC)c1` [Example 48, 1-[1-(2-Methoxy-4-methylaminobenzoyl)-4-piperidinyl]-3,4-dihydrocarbostyril] gave an IC50 of 0.4 µM.
Work on `COc1cc(N(C)C)ccc1C(=O)N1CCC(N2C(=O)CCc3ccccc32)CC1` [Example 49, 1-[1-(2-Methoxy-4-dimethylaminobenzoyl)-4-piperidinyl]-3,4-dihydrocarbostyril] yielded an IC50 of 0.2 µM.
`CN(C)c1ccc(C(=O)N2CCC(N3C(=O)CCc4ccccc43)CC2)c(N(C)C)c1` [Example 50, 1-{1-[2,4-Bis(N,N-dimethylamino)benzoyl]-4-piperidinyl}-3,4-dihydrocarbostyril] showed an IC50 of 0.4 µM.
In the case of `COc1ccc(C(=O)N2CCC(N3C(=O)CCc4ccccc43)CC2)c(N2CCOC2=O)c1` [Example 51, 1-{1-[2-(2-Oxooxazolydine-3-yl)-4-methoxybenzoyl]-4-piperidinyl}-3,4-dihydrocarbostyril], the IC50 is reported as 0.49 µM.
In the case of `CCOc1ccc(C(=O)N2CCC(N3C(=O)CCc4ccccc43)CC2)c(OC)c1` [Example 52, 1-[1-(2-Methoxy-4-ethoxybenzoyl)-4-piperidinyl]-3,4-dihydrocarbostyril], the IC50 is reported as 0.08 µM.
Compound `COc1cc(SC)ccc1C(=O)N1CCC(N2C(=O)CCc3ccccc32)CC1` [Example 53, 1-[1-(2-Methoxy-4-methylthiobenzoyl)-4-piperidinyl]-3,4-dihydrocarbostyril] has an IC50 of 0.08 µM.
`COc1cc(Cl)ccc1C(=O)N1CCC(N2C(=O)CCc3ccccc32)CC1` [Example 54, 1-[1-(2-Methoxy-4-chlorobenzoyl)-4-piperidinyl]-3,4-dihydrocarbostyril] was tested, and the IC50 was 0.27 µM.
`COc1ccc(C(=O)N2CCC(N3C(=O)CCc4ccccc43)CC2)c(N(C)C)c1` [Example 55, 1-[1-(2-Dimethylamino-4-methoxybenzoyl)-4-piperidinyl]-3,4-dihydrocarbostyril] gave an IC50 of 0.2 µM.
